Experimental data: ChEMBL document CHEMBL1201862, “PubChem BioAssay data set” (2004)
Calls of active or inactive are those of the source.

Assays:
[1] = biological target: Sentrin-specific protease 1 (Homo sapiens, UniProt Q9P0U3); test: Dose response confirmation of small molecule inhibitors of the catalytic domain of the SUMO protease, SENP1 in a FRET assay.; type: functional; conditions: read-out: IC50_Mean
[2] = biological target: Carboxy-terminal domain RNA polymerase II polypeptide A small phosphatase 1 (Homo sapiens, UniProt Q9GZU7); test: inhibitors of CTDSP1, concentration-response testing, biochemical assay, absorbance-based, actives from ultra-high-throughput screening (AID 540297); type: functional
[3] = biological target: T1, Probable nicotinate-nucleotide adenylyltransferase (Staphylococcus aureus (strain N315), UniProt P65502); type: functional, Staphylococcus aureus subsp. aureus N315;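 as to IC50 Mean: confirmatory dose-response retesting of NadD inhibitor hits first found in an ultra-high-throughput screen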
[4] = biological target: T1, Probable nicotinate-nucleotide adenylyltransferase; type: functional, Staphylococcus aureus subsp. aureus N315; conditions: read-out: IC50_Mean
[5] = Inhibition of T. cruzi Tulahuen strain amastigotes in L-6 muscle cells Measured in Cell-Based and Microorganism Combination System Using Plate Reader - 2138-03_Inhibitor_Dose_CherryPick_Activity.; type: functional; conditions: Rattus norvegicus, L6
[6] = cytotoxicity in L-6 rat myocytes, dose response, cytotoxicity control, cell-based, plate reader, cherry-pick (AID 651896); type: functional
[7] = Inhibition of Plasmodium falciparum NF54 Measured in Cell-Based System Using Plate Reader - 2138-11_Inhibitor_Dose_CherryPick_Activity.; type: functional
[8] = L. donovani amastigote growth inhibition, dose response, axenic amastigotes, plate reader, cherry pick (AID 651891); type: functional, cell-based; conditions: Leishmania donovani
[9] = intracellular Trypanosoma cruzi inhibitors in host cells – cell-based, plate reader, cherry-pick samples, set 3, dose response (AID 651818); type: functional;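 also: compounds incubated with infected cells for about four days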
[10] = T. b. rhodesiense proliferation inhibition, dose response, STIB900 strain, plate reader, cherry pick (AID 651893); type: functional, cell-based; conditions: Trypanosoma brucei
[11] = biological target: Genome polyprotein (dengue virus type 2, UniProt P29990); test: Dengue-2 NS5 methyltransferase inhibitors, primary screen, biochemical, confirmation dose response (AID 588689); type: functional
[12] = biological target: T2, Small ubiquitin-related modifier 2 (Homo sapiens, UniProt P61956); test: SUMO2–SIM peptide binding inhibitors, dose response, selectivity assay for SUMO1 interaction inhibitor project, biochemical, fluorescence polarization, uHTS hits (AID 624385); type: functional; conditions: read-out: IC50_Mean
[13] = biological target: T3, Small ubiquitin-related modifier 1 (Homo sapiens, UniProt P63165); test: inhibitors of SUMO1 peptide binding, dose response, biochemical, fluorescence polarization, uHTS hits (AID 624382); type: functional; conditions: read-out: IC50_Mean
[14] = biological target: T2, Small ubiquitin-related modifier 2; test: inhibitors of SUMO2 protein-protein interaction, dose response, selectivity assay for SUMO1 interaction inhibitor project, biochemical, FRET, human SUMO2, uHTS hits (AID 624384); type: functional; conditions: read-out: IC50_Mean
[15] = biological target: T3, Small ubiquitin-related modifier 1; test: inhibitors of SUMO1 partner interactions, dose response, biochemical, FRET (AID 624383); type: functional; conditions: read-out: IC50_Mean
[16] = biological target: T4, Rac GTPase-activating protein 1 (Homo sapiens, UniProt Q9H0H5); test: MgcRacGAP GTPase-activating activity inhibitors, confirmation, biochemical, ADP Hunter fluorescence, primary and confirmatory (AID 624330); type: functional
T4 sequence (Q9H0H5 whole entry): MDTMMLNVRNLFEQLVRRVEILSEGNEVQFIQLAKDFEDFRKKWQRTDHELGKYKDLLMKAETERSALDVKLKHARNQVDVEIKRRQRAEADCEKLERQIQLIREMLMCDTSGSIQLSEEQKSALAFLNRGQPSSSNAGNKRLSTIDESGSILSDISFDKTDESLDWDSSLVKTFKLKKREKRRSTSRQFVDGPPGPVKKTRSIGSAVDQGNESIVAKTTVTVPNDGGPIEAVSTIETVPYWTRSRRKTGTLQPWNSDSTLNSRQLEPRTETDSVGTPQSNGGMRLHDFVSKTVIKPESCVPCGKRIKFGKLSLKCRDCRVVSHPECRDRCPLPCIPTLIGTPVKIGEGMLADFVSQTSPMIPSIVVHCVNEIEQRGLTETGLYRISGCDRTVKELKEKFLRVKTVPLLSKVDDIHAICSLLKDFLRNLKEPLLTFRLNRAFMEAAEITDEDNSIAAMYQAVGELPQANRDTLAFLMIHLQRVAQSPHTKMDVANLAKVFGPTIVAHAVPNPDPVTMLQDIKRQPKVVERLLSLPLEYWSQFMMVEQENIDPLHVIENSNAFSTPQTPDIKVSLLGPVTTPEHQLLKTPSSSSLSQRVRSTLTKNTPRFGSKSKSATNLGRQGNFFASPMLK

[17] = biological target: T5, Replicative DNA helicase DnaB (Mycobacterium tuberculosis, UniProt P9WMR3); test: DnaB intein splicing inhibitors, dose response, biochemical, cell-free fluorescence (AID 449749); type: functional
T5 sequence (P9WMR3 whole entry): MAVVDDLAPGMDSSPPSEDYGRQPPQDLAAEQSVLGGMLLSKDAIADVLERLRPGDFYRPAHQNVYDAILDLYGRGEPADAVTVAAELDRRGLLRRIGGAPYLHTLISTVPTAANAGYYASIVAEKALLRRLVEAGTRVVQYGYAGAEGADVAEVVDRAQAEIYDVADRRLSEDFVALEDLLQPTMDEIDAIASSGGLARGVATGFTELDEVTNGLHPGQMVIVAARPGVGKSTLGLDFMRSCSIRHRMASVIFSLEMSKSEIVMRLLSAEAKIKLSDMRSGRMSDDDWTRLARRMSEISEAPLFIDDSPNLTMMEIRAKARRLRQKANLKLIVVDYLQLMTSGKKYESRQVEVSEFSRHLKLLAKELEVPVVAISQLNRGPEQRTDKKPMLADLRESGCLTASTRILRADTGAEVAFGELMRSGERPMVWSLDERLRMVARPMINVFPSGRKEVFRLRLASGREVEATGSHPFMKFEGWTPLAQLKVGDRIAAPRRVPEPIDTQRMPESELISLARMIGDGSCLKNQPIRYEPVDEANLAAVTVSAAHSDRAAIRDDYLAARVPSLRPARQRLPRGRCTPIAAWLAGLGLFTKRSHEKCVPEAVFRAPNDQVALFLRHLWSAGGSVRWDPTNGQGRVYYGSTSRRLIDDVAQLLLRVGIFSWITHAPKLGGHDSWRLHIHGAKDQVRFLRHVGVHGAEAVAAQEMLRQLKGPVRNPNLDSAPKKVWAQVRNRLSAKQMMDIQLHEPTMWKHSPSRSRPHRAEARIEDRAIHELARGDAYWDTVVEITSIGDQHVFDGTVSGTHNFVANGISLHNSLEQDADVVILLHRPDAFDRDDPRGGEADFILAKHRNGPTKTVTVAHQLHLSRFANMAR

[18] = biological target: T6, Apoptotic protease-activating factor 1 (Homo sapiens, UniProt O14727); type: functional
T6 sequence (O14727 whole entry): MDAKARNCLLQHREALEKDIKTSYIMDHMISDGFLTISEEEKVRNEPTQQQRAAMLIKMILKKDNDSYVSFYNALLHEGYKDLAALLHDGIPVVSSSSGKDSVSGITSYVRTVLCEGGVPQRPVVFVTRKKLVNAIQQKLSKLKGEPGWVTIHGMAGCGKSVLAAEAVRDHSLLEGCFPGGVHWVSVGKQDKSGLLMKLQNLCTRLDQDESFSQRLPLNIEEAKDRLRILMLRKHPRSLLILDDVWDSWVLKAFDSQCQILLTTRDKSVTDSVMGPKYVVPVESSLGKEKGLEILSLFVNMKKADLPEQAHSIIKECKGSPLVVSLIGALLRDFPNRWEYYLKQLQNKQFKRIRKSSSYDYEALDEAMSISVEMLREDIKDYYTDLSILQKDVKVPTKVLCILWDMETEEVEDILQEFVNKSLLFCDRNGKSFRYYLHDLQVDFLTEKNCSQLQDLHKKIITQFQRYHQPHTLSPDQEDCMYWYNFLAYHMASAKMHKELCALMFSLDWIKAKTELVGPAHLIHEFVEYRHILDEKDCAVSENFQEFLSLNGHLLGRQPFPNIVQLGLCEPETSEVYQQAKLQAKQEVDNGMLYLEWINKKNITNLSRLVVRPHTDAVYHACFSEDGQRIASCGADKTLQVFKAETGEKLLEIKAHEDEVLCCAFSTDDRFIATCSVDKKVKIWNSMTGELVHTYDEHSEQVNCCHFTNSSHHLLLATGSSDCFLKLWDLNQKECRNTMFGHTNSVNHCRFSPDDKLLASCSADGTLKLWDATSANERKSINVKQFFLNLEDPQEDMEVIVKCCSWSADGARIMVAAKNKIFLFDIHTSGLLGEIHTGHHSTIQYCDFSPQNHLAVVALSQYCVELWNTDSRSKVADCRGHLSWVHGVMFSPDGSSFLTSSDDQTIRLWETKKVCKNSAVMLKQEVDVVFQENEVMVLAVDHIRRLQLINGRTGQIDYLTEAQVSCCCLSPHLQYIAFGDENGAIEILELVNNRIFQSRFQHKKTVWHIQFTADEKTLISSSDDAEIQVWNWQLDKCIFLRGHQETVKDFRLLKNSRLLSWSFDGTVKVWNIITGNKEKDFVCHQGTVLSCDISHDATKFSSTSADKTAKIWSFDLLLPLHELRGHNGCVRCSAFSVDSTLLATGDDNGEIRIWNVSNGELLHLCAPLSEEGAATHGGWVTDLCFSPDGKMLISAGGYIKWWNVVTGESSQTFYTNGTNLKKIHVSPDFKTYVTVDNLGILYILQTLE

[19] = biological target: T7, Protein RecA (Mycobacterium tuberculosis, UniProt P9WHJ3); test: Fluorescence Cell-Free Homogeneous Dose Retest to Identify Inhibitors of RecA-Intein Splicing Activity. [Related pubchem assays (depositor defined):AID2097, AID2223, AID489010, AID492950]; type: functional
T7 sequence (P9WHJ3 whole entry): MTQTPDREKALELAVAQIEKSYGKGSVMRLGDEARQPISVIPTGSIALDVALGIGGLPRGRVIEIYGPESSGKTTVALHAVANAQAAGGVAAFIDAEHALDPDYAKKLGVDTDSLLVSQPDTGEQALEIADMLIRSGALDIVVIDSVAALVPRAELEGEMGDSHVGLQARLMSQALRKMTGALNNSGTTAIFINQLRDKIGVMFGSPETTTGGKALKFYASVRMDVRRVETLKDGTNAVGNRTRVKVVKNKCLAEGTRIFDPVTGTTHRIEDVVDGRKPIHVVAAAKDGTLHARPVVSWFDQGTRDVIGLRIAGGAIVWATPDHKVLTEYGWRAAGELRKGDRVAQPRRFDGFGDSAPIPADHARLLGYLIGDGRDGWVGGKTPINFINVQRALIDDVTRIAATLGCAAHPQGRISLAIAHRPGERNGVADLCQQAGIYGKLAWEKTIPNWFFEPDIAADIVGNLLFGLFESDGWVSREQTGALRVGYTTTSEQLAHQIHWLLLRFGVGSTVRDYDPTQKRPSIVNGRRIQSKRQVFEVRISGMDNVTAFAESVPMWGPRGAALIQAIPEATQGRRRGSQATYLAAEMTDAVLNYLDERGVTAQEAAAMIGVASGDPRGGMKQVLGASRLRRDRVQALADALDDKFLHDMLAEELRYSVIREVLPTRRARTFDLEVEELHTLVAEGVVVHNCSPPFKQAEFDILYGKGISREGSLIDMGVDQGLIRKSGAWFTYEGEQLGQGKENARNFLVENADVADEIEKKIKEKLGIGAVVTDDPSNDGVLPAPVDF

[20] = biological target: Arf-GAP with SH3 domain, ANK repeat and PH domain-containing protein 1 (Homo sapiens, UniProt Q9ULH1); type: functional;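 also: biochemical fluorescence polarization dose–response screen measuring inhibition of ASAP1; ASAP1 GAP domain stimulating GTP hydrolysis by truncated human ARF1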
[21] = biological target: T8, Tyrosyl-DNA phosphodiesterase 2 (Homo sapiens, UniProt O95551); test: human TDP2 enzyme inhibitors, dose response, biochemical, epi absorbance, IC50 (AID 743297)
T8 sequence (O95551 whole entry): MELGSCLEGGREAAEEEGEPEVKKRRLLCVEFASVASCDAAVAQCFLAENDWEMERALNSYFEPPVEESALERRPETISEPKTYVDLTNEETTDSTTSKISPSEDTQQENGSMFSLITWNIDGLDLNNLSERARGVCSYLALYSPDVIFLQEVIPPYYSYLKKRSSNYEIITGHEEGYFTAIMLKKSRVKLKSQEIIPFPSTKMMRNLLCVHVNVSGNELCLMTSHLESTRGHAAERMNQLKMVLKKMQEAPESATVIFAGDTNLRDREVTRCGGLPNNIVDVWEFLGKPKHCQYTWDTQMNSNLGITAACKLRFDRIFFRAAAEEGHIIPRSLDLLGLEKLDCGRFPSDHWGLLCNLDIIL

[22] = NIH/3T3 fibroblast cytotoxicity, dose response, cytotoxicity control for T. cruzi growth inhibitor project, cell-based, cherry-pick samples, set 2 (AID 651817); type: functional; conditions: NIH3T3

T2 sequence (P61956 whole entry): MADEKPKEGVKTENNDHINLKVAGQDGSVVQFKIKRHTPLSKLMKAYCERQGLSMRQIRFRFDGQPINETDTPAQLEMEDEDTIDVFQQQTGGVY
T1 sequence (P65502 whole entry): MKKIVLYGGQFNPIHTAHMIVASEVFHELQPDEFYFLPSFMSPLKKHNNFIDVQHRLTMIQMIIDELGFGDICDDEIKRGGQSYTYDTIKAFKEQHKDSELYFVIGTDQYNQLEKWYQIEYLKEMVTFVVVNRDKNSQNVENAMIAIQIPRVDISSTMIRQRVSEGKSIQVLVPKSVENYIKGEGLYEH
T3 sequence (P63165 whole entry): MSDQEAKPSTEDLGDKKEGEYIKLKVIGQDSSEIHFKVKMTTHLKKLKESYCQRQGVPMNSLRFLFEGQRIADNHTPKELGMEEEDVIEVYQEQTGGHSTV
Sentrin-specific protease 1, sequence (Q9P0U3 whole entry, the tested form may be a part): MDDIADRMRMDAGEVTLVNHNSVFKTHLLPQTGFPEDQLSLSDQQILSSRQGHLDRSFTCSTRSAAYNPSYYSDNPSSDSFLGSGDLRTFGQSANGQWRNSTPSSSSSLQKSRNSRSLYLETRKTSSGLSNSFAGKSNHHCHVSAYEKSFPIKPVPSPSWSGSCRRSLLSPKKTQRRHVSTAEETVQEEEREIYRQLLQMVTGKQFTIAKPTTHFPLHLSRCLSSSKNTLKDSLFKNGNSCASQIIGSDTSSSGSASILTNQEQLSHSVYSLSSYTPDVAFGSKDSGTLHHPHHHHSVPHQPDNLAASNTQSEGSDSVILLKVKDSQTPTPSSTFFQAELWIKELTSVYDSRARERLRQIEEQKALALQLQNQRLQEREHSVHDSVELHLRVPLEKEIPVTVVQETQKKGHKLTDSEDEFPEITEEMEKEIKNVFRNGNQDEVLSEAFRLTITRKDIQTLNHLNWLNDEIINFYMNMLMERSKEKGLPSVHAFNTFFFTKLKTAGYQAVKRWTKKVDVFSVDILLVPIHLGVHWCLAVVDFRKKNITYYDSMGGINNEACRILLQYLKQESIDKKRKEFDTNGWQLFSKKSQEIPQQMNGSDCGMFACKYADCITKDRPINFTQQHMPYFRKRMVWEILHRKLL
Arf-GAP with SH3 domain, ANK repeat and PH domain-containing protein 1, sequence (Q9ULH1 whole entry, the tested form may be a part): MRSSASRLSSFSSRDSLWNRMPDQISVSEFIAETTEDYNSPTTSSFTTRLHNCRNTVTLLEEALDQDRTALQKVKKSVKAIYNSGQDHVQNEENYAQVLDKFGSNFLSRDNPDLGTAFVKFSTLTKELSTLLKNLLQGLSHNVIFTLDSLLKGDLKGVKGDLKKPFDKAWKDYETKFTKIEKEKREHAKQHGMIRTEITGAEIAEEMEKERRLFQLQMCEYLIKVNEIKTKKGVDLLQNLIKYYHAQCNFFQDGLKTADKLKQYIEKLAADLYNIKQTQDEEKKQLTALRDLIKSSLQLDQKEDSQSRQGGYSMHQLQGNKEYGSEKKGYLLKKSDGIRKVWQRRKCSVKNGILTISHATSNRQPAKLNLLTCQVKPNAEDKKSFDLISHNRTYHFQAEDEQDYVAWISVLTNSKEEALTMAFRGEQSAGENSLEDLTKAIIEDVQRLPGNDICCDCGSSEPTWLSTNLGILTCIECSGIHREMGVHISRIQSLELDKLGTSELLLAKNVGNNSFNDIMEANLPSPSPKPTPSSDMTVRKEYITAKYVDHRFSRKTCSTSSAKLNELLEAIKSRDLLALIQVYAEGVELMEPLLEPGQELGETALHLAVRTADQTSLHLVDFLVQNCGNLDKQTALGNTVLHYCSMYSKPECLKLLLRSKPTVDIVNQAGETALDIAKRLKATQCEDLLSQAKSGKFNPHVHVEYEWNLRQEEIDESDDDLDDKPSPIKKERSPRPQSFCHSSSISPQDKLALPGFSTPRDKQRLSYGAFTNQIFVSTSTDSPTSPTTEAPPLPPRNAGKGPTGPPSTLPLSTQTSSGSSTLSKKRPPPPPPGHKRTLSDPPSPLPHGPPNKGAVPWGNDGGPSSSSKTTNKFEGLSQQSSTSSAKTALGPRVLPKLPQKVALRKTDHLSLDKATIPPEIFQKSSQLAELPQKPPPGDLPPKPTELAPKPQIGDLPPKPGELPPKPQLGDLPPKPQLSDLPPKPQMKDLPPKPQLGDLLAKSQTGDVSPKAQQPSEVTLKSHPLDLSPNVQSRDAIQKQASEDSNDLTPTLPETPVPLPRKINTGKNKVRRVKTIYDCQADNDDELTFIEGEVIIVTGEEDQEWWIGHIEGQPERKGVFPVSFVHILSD
Carboxy-terminal domain RNA polymerase II polypeptide A small phosphatase 1, sequence (Q9GZU7 whole entry, the tested form may be a part): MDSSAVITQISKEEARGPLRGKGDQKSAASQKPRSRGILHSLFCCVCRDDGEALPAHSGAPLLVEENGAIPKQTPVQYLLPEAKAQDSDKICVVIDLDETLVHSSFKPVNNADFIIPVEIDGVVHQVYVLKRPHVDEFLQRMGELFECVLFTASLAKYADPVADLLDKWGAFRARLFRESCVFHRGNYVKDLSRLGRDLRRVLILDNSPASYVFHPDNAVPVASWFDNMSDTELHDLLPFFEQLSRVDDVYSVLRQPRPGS
Genome polyprotein, sequence (P29990 2492-3391 limits assumed): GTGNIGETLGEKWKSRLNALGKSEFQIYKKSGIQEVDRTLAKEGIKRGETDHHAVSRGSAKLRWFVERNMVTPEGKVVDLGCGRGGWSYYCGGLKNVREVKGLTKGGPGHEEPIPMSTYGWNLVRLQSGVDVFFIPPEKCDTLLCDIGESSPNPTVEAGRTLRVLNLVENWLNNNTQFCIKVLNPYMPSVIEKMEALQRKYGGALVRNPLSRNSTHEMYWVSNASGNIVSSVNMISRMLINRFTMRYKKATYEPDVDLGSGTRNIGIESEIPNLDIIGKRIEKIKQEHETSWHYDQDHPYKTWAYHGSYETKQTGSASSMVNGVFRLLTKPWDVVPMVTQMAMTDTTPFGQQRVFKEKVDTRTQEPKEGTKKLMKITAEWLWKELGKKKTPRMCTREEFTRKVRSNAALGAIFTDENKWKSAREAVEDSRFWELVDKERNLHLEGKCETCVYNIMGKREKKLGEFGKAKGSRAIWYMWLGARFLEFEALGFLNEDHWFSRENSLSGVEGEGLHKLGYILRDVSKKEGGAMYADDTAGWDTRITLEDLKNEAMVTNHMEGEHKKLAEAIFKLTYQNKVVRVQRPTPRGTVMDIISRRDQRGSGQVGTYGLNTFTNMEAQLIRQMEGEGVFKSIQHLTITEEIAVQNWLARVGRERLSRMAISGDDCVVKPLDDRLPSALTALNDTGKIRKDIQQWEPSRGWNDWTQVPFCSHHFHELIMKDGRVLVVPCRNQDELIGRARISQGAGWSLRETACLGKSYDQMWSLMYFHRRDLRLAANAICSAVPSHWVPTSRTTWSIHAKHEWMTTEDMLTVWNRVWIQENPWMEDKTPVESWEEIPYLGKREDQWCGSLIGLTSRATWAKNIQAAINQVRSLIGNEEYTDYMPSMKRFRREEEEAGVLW

Cc1nc2ccc(NS(=O)(=O)c3ccc(F)cc3F)cc2s1
IC50 [1]: 18.4 µM (active)

CC1CCCCC1NC(=O)COC(=O)c1c2c(nc3ccccc13)/C(=C\c1ccco1)CC2 (configuration not stated)
IC50 [2]: 5.27 µM (active) | IC50 [3]: 6.81 µM (active) | IC50 [4]: 14.6 µM (active)

COc1ccc(CN(C)C[C@@H]2Oc3c(NC(=O)c4ccncc4)cccc3C(=O)N([C@H](C)CO)C[C@H]2C)cc1
IC50 [5]: 5.91 µM (inactive) | IC50 [6]: > 100 µM (inactive) | IC50 [7]: 5.91 µM (inactive) | IC50 [8]: > 100 µM (inactive) | AC50 [9]: 0.361 µM (active) | IC50 [10]: 2.62 µM (inactive)

CCCCCC(=O)Nc1cc(S(=O)(=O)O)cc2cc(S(=O)(=O)O)cc(O)c12
IC50 [11]: 30 µM (active) | IC50 [12]: 6.81 µM (active) | IC50 [13]: 19.2 µM (active) | IC50 [14]: 0.92 µM (active) | IC50 [15]: 2.29 µM (active) | IC50 [16]: 31.7 µM (active)

COc1ccccc1Nc1cc2cc(Br)ccc2c(=O)[nH]1
AC50 [17]: > 120 µM (inactive) | IC50 [18]: 1.51 µM (active) | EC50 [19]: 23.3 µM (active) | IC50 [20]: 165 µM (inactive) | IC50 [21]: 10.7 µM (inactive)

C[C@@H]1CN([C@@H](C)CO)C(=O)Cc2cc(NS(=O)(=O)c3ccc(F)cc3)ccc2O[C@@H]1CN(C)Cc1ccc(Cl)c(Cl)c1
AC50 [22]: 11 µM (active)
